Key:
Assay in all cases: KINOMEscan competition binding
[1] = biological target: AKT1 (human) (UniProt P31749)
[2] = biological target: BMX (human) (UniProt P51813)
[3] = tested on: BRAF (human), P15056 [V600E]; settings: compound 1.0 µM
[4] = biological target: CDK13 (human) (UniProt Q14004)
[5] = biological target: CDK19 (human) (UniProt Q9BWU1)
[6] = biological target: CDKL2 (human) (UniProt Q92772)
[7] = biological target: DSTYK (human) (UniProt Q6XUX3)
[8] = biological target: EPHA5 (human) (UniProt P54756)
[9] = biological target: FGFR1 (human) (UniProt P11362)
[10] = biological target: FGFR4 (human) (UniProt P22455)
[11] = biological target: GRK1 (human) (UniProt Q15835)
[12] = biological target: HIPK2 (human) (UniProt Q9H2X6)
[13] = biological target: IKBKB (human) (UniProt O14920)
[14] = biological target: IRAK4 (human) (UniProt Q9NWZ3)
[15] = tested on: KIT (human), P10721 [D816V]
[16] = biological target: LATS1 (human) (UniProt O95835)
[17] = biological target: LATS2 (human) (UniProt Q9NRM7)
[18] = biological target: LIMK1 (human) (UniProt P53667)
[19] = biological target: MAP2K6 (human) (UniProt P52564)
[20] = biological target: MAP2K7 (human) (UniProt O14733)
[21] = biological target: MAPK13 (human) (UniProt O15264)
[22] = biological target: MAPK7 (human) (UniProt Q13164)
[23] = biological target: MARK3 (human) (UniProt P27448)
[24] = biological target: MATK (human) (UniProt P42679)
[25] = biological target: MELK (human) (UniProt Q14680)
[26] = biological target: MST1R (human) (UniProt Q04912)
[27] = biological target: MYO3B (human) (UniProt Q8WXR4)
[28] = biological target: NTRK2 (human) (UniProt Q16620)
[29] = biological target: NTRK3 (human) (UniProt Q16288)
[30] = biological target: PAK4 (human) (UniProt O96013)
[31] = biological target: PHKG1 (human) (UniProt Q16816)
[32] = biological target: PHKG2 (human) (UniProt P15735)
[33] = biological target: PIK3CD (human) (UniProt O00329)
[34] = biological target: PIM3 (human) (UniProt Q86V86)
[35] = biological target: PRKCD (human) (UniProt Q05655)
[36] = biological target: PRKG2 (human) (UniProt Q13237)
[37] = biological target: PTK2B (human) (UniProt Q14289)
[38] = biological target: RPS6KA6 KD2 (human) (UniProt Q9UK32)
[39] = biological target: SIK3 (human) (UniProt Q9Y2K2)
[40] = biological target: STK32B (human) (UniProt Q9NY57)
[41] = biological target: STK32C (human) (UniProt Q86UX6)
[42] = biological target: STK35 (human) (UniProt Q8TDR2)
[43] = biological target: YES1 (human) (UniProt P07947)

Chain of PIK3CD (human) (O00329 whole entry, looked up): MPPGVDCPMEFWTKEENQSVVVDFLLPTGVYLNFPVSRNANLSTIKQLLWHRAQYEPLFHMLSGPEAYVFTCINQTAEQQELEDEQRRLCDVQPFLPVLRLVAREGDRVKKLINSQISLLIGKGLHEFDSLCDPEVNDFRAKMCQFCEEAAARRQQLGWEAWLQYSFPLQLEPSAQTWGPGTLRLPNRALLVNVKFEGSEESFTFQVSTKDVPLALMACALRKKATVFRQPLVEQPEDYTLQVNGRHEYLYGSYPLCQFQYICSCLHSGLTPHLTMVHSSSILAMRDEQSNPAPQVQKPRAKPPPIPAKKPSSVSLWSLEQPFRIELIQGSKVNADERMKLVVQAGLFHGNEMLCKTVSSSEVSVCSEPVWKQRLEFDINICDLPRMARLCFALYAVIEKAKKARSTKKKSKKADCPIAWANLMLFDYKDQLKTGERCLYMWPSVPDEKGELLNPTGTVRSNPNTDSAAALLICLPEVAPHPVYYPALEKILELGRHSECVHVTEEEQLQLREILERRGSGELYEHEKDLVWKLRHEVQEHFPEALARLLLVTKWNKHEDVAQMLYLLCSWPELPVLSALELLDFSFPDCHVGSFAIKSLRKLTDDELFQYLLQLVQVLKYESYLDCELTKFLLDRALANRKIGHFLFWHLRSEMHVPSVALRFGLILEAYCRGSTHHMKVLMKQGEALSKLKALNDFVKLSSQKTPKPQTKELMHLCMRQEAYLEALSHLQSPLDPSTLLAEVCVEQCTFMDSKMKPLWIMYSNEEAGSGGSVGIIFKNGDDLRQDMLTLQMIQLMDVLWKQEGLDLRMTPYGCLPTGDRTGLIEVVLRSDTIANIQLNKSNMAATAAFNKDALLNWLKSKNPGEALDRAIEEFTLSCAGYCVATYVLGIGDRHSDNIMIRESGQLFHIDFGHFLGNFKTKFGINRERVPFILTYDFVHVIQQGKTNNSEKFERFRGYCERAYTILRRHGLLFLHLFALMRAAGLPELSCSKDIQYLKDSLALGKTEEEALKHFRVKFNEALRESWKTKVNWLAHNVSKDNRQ
Chain of NTRK2 (human) (Q16620 whole entry, looked up): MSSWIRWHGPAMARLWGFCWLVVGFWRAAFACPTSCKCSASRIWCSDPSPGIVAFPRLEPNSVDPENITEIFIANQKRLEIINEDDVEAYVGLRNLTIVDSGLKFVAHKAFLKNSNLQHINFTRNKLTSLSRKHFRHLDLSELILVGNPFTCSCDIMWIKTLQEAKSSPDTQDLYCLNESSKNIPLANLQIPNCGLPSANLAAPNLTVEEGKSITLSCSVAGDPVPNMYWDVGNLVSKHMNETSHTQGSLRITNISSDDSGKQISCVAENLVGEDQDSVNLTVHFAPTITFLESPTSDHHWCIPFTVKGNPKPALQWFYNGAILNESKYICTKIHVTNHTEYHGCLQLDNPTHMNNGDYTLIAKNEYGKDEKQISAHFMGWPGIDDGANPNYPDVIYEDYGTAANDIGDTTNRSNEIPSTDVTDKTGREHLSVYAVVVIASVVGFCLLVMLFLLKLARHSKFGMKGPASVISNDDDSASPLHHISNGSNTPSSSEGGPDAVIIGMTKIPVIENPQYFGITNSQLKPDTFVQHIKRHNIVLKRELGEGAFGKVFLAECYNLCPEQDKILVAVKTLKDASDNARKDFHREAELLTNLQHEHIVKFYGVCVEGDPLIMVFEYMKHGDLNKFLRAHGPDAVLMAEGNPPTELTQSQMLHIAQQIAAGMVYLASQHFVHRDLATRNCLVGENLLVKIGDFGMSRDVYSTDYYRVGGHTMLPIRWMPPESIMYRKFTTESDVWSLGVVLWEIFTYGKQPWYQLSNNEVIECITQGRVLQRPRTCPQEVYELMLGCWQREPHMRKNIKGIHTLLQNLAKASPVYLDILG
Chain of MAPK13 (human) (O15264 whole entry, looked up): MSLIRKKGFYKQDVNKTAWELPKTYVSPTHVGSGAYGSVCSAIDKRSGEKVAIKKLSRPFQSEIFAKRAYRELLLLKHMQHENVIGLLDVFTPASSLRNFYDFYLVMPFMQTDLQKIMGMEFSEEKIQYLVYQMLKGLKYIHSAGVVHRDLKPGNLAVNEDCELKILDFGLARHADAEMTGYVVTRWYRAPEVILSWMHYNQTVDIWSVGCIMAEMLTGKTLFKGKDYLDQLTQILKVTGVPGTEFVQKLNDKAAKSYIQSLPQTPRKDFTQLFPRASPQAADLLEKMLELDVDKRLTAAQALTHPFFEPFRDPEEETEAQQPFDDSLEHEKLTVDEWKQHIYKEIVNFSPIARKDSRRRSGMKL
Chain of STK32B (human) (Q9NY57 whole entry, looked up): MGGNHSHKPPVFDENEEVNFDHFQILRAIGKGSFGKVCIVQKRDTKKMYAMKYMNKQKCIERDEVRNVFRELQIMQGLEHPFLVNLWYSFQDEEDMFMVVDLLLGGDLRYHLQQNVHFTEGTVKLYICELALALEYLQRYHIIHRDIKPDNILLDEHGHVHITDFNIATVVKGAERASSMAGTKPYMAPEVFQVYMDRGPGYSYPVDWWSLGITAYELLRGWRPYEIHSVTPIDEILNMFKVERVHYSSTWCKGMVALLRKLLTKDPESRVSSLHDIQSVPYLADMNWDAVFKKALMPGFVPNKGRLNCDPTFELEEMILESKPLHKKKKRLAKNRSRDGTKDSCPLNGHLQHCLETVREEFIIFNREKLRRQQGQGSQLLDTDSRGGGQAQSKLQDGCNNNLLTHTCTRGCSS
Chain of LATS1 (human) (O95835 whole entry, looked up): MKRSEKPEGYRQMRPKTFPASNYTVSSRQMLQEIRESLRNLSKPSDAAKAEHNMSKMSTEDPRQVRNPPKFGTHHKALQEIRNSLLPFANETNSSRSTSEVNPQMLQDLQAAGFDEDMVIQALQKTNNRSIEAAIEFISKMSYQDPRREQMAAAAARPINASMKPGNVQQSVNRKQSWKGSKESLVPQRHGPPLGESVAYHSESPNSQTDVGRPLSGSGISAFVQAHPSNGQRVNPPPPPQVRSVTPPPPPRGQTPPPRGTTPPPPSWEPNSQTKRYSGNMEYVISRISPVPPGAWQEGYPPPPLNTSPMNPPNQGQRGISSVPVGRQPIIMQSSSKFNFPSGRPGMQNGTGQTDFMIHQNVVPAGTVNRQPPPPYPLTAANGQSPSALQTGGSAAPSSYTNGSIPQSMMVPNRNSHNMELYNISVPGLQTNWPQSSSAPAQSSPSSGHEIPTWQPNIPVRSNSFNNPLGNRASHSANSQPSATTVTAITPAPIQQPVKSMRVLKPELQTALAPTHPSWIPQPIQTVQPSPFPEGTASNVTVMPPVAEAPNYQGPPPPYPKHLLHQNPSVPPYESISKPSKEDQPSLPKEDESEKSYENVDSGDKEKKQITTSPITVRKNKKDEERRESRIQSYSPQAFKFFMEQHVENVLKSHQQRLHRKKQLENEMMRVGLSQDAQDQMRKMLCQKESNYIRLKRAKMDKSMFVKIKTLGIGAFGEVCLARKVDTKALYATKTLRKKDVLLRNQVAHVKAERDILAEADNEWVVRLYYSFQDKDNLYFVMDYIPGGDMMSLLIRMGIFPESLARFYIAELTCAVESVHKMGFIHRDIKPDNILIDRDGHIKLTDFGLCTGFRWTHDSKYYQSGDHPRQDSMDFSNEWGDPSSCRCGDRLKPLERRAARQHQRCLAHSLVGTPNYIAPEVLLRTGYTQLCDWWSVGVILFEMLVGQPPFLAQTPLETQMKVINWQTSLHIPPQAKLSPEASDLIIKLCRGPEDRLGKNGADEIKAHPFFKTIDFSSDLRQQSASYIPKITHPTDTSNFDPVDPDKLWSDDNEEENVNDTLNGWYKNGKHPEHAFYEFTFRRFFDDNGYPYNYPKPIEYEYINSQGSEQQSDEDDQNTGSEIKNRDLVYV
Chain of LIMK1 (human) (P53667 whole entry, looked up): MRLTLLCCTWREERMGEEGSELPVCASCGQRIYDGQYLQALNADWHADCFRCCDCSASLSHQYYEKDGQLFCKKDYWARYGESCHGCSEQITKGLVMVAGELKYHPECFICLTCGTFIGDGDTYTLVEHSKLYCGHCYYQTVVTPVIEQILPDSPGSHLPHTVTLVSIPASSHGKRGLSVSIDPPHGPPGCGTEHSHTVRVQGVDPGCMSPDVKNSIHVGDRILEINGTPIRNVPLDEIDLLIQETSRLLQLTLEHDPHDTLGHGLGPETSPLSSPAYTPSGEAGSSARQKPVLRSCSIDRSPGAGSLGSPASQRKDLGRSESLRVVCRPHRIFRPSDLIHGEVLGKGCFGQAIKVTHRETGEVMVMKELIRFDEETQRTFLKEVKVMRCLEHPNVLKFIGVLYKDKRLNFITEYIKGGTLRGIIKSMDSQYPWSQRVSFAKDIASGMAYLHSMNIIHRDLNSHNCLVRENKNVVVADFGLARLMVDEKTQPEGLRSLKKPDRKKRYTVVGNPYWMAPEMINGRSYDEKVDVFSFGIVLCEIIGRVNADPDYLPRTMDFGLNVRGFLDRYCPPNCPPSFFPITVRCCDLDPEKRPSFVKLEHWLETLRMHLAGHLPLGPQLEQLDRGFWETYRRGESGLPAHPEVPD
Chain of CDKL2 (human) (Q92772 whole entry, looked up): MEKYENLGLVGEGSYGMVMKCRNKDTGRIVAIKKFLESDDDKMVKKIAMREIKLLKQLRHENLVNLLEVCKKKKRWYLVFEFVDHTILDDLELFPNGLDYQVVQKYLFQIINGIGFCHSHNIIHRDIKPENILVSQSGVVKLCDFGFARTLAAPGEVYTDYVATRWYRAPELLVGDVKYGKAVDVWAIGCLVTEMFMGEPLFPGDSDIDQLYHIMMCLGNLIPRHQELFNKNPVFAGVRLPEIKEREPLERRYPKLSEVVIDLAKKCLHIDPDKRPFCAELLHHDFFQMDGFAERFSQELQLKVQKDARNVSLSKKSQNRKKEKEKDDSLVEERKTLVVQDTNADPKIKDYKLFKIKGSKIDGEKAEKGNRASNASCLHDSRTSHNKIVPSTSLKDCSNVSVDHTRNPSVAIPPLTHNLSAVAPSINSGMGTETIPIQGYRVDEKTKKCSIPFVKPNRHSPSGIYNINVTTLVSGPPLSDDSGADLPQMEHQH

CN(C)C/C=C/C(=O)Nc1cccc(C(=O)Nc2ccc(Nc3nccc(-c4c(-c5ccccc5)nn5ccccc45)n3)cc2)c1
kinase still bound, per cent of control ([1]; compound 1.0 µM): 100% | kinase still bound, per cent of control ([2]; compound 1.0 µM): 76% | kinase still bound, per cent of control [3]: 21% | kinase still bound, per cent of control ([4]; compound 1.0 µM): 100% | kinase still bound, per cent of control ([5]; compound 1.0 µM): 100% | kinase still bound, per cent of control ([6]; compound 1.0 µM): 74% | kinase still bound, per cent of control ([7]; compound 1.0 µM): 80% | kinase still bound, per cent of control ([8]; compound 1.0 µM): 98% | kinase still bound, per cent of control ([9]; compound 1.0 µM): 80% | kinase still bound, per cent of control ([10]; compound 1.0 µM): 100% | kinase still bound, per cent of control ([11]; compound 1.0 µM): 100% | kinase still bound, per cent of control ([12]; compound 1.0 µM): 97% | kinase still bound, per cent of control ([13]; compound 1.0 µM): 84% | kinase still bound, per cent of control ([14]; compound 1.0 µM): 84% | kinase still bound, per cent of control ([15]; compound 1.0 µM): 33% | kinase still bound, per cent of control ([16]; compound 1.0 µM): 95% | kinase still bound, per cent of control ([17]; compound 1.0 µM): 78% | kinase still bound, per cent of control ([18]; compound 1.0 µM): 100% | kinase still bound, per cent of control ([19]; compound 1.0 µM): 56% | kinase still bound, per cent of control ([20]; compound 1.0 µM): 89% | kinase still bound, per cent of control ([21]; compound 1.0 µM): 100% | kinase still bound, per cent of control ([22]; compound 1.0 µM): 100% | kinase still bound, per cent of control ([23]; compound 1.0 µM): 75% | kinase still bound, per cent of control ([24]; compound 1.0 µM): 100% | kinase still bound, per cent of control ([25]; compound 1.0 µM): 100% | kinase still bound, per cent of control ([26]; compound 1.0 µM): 100% | kinase still bound, per cent of control ([27]; compound 1.0 µM): 97% | kinase still bound, per cent of control ([28]; compound 1.0 µM): 14% | kinase still bound, per cent of control ([29]; compound 1.0 µM): 84% | kinase still bound, per cent of control ([30]; compound 1.0 µM): 91% | kinase still bound, per cent of control ([31]; compound 1.0 µM): 100% | kinase still bound, per cent of control ([32]; compound 1.0 µM): 100% | kinase still bound, per cent of control ([33]; compound 1.0 µM): 95% | kinase still bound, per cent of control ([34]; compound 1.0 µM): 94% | kinase still bound, per cent of control ([35]; compound 1.0 µM): 100% | kinase still bound, per cent of control ([36]; compound 1.0 µM): 83% | kinase still bound, per cent of control ([37]; compound 1.0 µM): 85% | kinase still bound, per cent of control ([38]; compound 1.0 µM): 13% | kinase still bound, per cent of control ([39]; compound 1.0 µM): 100% | kinase still bound, per cent of control ([40]; compound 1.0 µM): 30% | kinase still bound, per cent of control ([41]; compound 1.0 µM): 99% | kinase still bound, per cent of control ([42]; compound 1.0 µM): 94% | kinase still bound, per cent of control ([43]; compound 1.0 µM): 12%

Cc1ccc(NC(=O)c2ccc(NC(=O)/C=C/CN(C)C)cc2)cc1Nc1nccc(-c2cccnc2)n1
kinase still bound, per cent of control ([1]; compound 10.0 µM): 100% | kinase still bound, per cent of control ([2]; compound 10.0 µM): 100% | kinase still bound, per cent of control ([4]; compound 10.0 µM): 65% | kinase still bound, per cent of control ([5]; compound 10.0 µM): 32% | kinase still bound, per cent of control ([6]; compound 10.0 µM): 100% | kinase still bound, per cent of control ([7]; compound 10.0 µM): 81% | kinase still bound, per cent of control ([8]; compound 10.0 µM): 97% | kinase still bound, per cent of control ([9]; compound 10.0 µM): 87% | kinase still bound, per cent of control ([10]; compound 10.0 µM): 100% | kinase still bound, per cent of control ([11]; compound 10.0 µM): 100% | kinase still bound, per cent of control ([12]; compound 10.0 µM): 54% | kinase still bound, per cent of control ([13]; compound 10.0 µM): 70% | kinase still bound, per cent of control ([14]; compound 10.0 µM): 81% | kinase still bound, per cent of control ([15]; compound 10.0 µM): 38% | kinase still bound, per cent of control ([16]; compound 10.0 µM): 100% | kinase still bound, per cent of control ([17]; compound 10.0 µM): 100% | kinase still bound, per cent of control ([18]; compound 10.0 µM): 85% | kinase still bound, per cent of control ([19]; compound 10.0 µM): 100% | kinase still bound, per cent of control ([20]; compound 10.0 µM): 100% | kinase still bound, per cent of control ([21]; compound 10.0 µM): 87% | kinase still bound, per cent of control ([22]; compound 10.0 µM): 100% | kinase still bound, per cent of control ([23]; compound 10.0 µM): 100% | kinase still bound, per cent of control ([24]; compound 10.0 µM): 45% | kinase still bound, per cent of control ([25]; compound 10.0 µM): 12% | kinase still bound, per cent of control ([26]; compound 10.0 µM): 100% | kinase still bound, per cent of control ([27]; compound 10.0 µM): 100% | kinase still bound, per cent of control ([28]; compound 10.0 µM): 67% | kinase still bound, per cent of control ([29]; compound 10.0 µM): 82% | kinase still bound, per cent of control ([30]; compound 10.0 µM): 84% | kinase still bound, per cent of control ([31]; compound 10.0 µM): 87% | kinase still bound, per cent of control ([32]; compound 10.0 µM): 86% | kinase still bound, per cent of control ([33]; compound 10.0 µM): 95% | kinase still bound, per cent of control ([34]; compound 10.0 µM): 66% | kinase still bound, per cent of control ([35]; compound 10.0 µM): 96% | kinase still bound, per cent of control ([36]; compound 10.0 µM): 74% | kinase still bound, per cent of control ([37]; compound 10.0 µM): 100% | kinase still bound, per cent of control ([38]; compound 10.0 µM): 67% | kinase still bound, per cent of control ([39]; compound 10.0 µM): 100% | kinase still bound, per cent of control ([40]; compound 10.0 µM): 100% | kinase still bound, per cent of control ([41]; compound 10.0 µM): 80% | kinase still bound, per cent of control ([42]; compound 10.0 µM): 82% | kinase still bound, per cent of control ([43]; compound 10.0 µM): 100%

CN(C)C/C=C/C(=O)Nc1cccc(C(=O)Nc2ccc(Nc3nccc(/C(C#N)=C4\Nc5ccccc5S4)n3)cc2)c1
kinase still bound, per cent of control ([1]; compound 1.0 µM): 6.6% | kinase still bound, per cent of control ([2]; compound 1.0 µM): 88% | kinase still bound, per cent of control ([4]; compound 1.0 µM): 100% | kinase still bound, per cent of control ([5]; compound 1.0 µM): 93% | kinase still bound, per cent of control ([6]; compound 1.0 µM): 28% | kinase still bound, per cent of control ([7]; compound 1.0 µM): 100% | kinase still bound, per cent of control ([8]; compound 1.0 µM): 100% | kinase still bound, per cent of control ([9]; compound 1.0 µM): 100% | kinase still bound, per cent of control ([10]; compound 1.0 µM): 100% | kinase still bound, per cent of control ([11]; compound 1.0 µM): 100% | kinase still bound, per cent of control ([12]; compound 1.0 µM): 60% | kinase still bound, per cent of control ([13]; compound 1.0 µM): 87% | kinase still bound, per cent of control ([14]; compound 1.0 µM): 71% | kinase still bound, per cent of control ([15]; compound 1.0 µM): 41% | kinase still bound, per cent of control ([16]; compound 1.0 µM): 89% | kinase still bound, per cent of control ([17]; compound 1.0 µM): 100% | kinase still bound, per cent of control ([18]; compound 1.0 µM): 100% | kinase still bound, per cent of control ([19]; compound 1.0 µM): 100% | kinase still bound, per cent of control ([20]; compound 1.0 µM): 100% | kinase still bound, per cent of control ([21]; compound 1.0 µM): 86% | kinase still bound, per cent of control ([22]; compound 1.0 µM): 100% | kinase still bound, per cent of control ([23]; compound 1.0 µM): 100% | kinase still bound, per cent of control ([24]; compound 1.0 µM): 100% | kinase still bound, per cent of control ([25]; compound 1.0 µM): 100% | kinase still bound, per cent of control ([26]; compound 1.0 µM): 100% | kinase still bound, per cent of control ([27]; compound 1.0 µM): 100% | kinase still bound, per cent of control ([28]; compound 1.0 µM): 100% | kinase still bound, per cent of control ([29]; compound 1.0 µM): 97% | kinase still bound, per cent of control ([30]; compound 1.0 µM): 100% | kinase still bound, per cent of control ([31]; compound 1.0 µM): 94% | kinase still bound, per cent of control ([32]; compound 1.0 µM): 100% | kinase still bound, per cent of control ([33]; compound 1.0 µM): 100% | kinase still bound, per cent of control ([34]; compound 1.0 µM): 100% | kinase still bound, per cent of control ([35]; compound 1.0 µM): 47% | kinase still bound, per cent of control ([36]; compound 1.0 µM): 100% | kinase still bound, per cent of control ([37]; compound 1.0 µM): 100% | kinase still bound, per cent of control ([38]; compound 1.0 µM): 100% | kinase still bound, per cent of control ([39]; compound 1.0 µM): 100% | kinase still bound, per cent of control ([40]; compound 1.0 µM): 99% | kinase still bound, per cent of control ([41]; compound 1.0 µM): 100% | kinase still bound, per cent of control ([42]; compound 1.0 µM): 97% | kinase still bound, per cent of control ([43]; compound 1.0 µM): 100%

From the kinase profiling compilation of Christmann-Franck et al. (2016)
